Data: patent publication US11180474B2 (BRISTOL-MYERS SQUIBB COMPANY, priority 2016, dated 2021)

Legend:
human TLR9 = molecular target: T1, human TLR9 (Homo sapiens, UniProt Q9NR96); test: TLR9 inhibition reporter assay (HEK-Blue cells, SEAP reporter, ODN2006 stimulation); type: cell-based; conditions: HEK-Blue cells overexpressing human TLR9, ODN2006 5 nM
T1 construct: host or cells: HEK-Blue cells
T1 sequence (Q9NR96 26-1032): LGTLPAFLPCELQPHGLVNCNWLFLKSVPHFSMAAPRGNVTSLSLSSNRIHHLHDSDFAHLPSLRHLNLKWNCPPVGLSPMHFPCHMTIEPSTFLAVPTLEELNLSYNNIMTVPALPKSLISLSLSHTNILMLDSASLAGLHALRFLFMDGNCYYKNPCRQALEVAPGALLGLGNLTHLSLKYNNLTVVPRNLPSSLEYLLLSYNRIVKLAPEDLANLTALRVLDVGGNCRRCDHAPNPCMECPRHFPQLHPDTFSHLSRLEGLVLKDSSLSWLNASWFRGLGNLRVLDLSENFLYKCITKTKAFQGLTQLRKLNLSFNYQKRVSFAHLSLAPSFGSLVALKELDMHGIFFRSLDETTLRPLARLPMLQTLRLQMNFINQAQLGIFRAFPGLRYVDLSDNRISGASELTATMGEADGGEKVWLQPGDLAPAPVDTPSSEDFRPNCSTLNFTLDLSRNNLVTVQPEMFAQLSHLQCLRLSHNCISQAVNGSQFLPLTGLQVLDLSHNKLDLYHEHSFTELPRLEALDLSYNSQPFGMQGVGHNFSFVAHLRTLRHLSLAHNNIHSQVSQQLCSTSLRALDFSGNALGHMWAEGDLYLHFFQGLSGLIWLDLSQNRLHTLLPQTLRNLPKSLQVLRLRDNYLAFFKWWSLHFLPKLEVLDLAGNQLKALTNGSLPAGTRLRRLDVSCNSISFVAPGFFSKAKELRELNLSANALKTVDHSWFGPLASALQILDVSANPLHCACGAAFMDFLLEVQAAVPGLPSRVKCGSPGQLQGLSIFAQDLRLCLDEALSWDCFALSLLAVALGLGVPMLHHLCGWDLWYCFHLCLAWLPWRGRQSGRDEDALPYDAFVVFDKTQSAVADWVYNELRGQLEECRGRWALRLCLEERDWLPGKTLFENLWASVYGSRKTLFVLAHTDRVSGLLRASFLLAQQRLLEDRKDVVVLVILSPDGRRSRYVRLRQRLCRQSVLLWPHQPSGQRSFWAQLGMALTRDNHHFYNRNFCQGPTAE
Outline: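 HEK-Blue cells overexpressing human TLR7, TLR8 or TLR9 carry a SEAP reporter driven by NF-κB/AP-1 sites. Compounds (0.05 nM–50 μM) were preincubated 30 min at room temperature, then cells were stimulated with gardiquimod 7.5 μM (TLR7), R848 15.9 μM (TLR8) or ODN2006 5 nM (TLR9) for 22 h at 37 °C.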

human TLR7 = molecular target: T2, human TLR7 (Homo sapiens, UniProt Q9NYK1); test: TLR7 inhibition reporter assay (HEK-Blue cells, SEAP reporter, gardiquimod stimulation); type: cell-based; conditions: HEK-Blue cells overexpressing human TLR7, gardiquimod 7.5 μM
T2 construct: host or cells: HEK-Blue cells
T2 sequence (Q9NYK1 27-1049): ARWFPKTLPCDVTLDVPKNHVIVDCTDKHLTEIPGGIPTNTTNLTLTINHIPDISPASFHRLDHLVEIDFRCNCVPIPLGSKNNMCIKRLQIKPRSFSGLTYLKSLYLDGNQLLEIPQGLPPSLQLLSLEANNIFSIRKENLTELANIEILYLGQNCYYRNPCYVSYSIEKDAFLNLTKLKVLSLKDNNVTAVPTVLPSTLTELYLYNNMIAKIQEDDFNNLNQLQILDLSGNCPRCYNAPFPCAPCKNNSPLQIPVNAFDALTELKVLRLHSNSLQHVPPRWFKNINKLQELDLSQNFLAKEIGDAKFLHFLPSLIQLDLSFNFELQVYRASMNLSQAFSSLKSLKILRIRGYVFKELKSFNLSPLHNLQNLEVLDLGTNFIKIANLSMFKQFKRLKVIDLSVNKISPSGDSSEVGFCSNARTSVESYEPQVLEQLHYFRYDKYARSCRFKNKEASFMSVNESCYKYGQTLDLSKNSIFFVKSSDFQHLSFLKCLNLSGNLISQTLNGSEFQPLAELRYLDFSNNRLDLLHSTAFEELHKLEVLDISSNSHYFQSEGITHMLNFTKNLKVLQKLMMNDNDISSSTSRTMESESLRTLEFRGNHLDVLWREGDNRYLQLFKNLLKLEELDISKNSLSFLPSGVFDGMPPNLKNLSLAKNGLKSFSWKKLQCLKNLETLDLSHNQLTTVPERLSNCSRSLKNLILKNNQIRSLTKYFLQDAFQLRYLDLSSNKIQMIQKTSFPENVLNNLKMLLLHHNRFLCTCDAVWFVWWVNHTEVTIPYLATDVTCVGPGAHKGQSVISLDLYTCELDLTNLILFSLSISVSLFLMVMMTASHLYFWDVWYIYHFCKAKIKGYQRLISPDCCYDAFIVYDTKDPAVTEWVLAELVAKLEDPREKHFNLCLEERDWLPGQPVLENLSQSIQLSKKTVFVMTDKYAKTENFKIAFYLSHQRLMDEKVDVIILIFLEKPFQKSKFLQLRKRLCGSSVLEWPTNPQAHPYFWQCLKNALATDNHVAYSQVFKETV
Outline: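 SEAP readout via HEK-Blue Detection medium after 22 h at 37 °C, 5% CO2 defines inhibition, normalized between agonist-plus-DMSO wells and a reference inhibitor. Compound dose range 0.05 nM–50 μM; TLR7 cells at 15,000/well (gardiquimod), TLR8 at 20,000/well (R848).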

IC50 (human TLR9) [nM]	IC50 (human TLR7) [nM]	SMILES
780	21	COc1ccc(-c2[nH]c3ccc(C4CCN(C(=O)CN5CCCC(CO)C5)CC4)cc3c2C(C)C)cc1OC (stereo not shown) [Example 249, 1-(4-(2-(3,4-dimethoxyphenyl)-3-isopropyl-1H-indol-5-yl)piperidin-1-yl)-2-(3-(hydroxymethyl)piperidin-1-yl)ethan-1-one]
1440	18	COc1ccc(-c2[nH]c3ccc(C4CCN(Cc5cncn5C)CC4)cc3c2C(C)C)cc1OC [Example 258, 2-(3,4-dimethoxyphenyl)-3-isopropyl-5-(1-((1-methyl-1H-imidazol-5-yl)methyl)piperidin-4-yl)-1H-indole]
1930	96	COc1ccc(-c2[nH]c3ccc(C4CCN(C(=O)CN[C@H](CO)CC(C)C)CC4)cc3c2C(C)C)cc1OC [Example 231, (S)-1-(4-(2-(3,4-dimethoxyphenyl)-3-isopropyl-1H-indol-5-yl)piperidin-1-yl)-2-((1-hydroxy-4-methylpentan-2-yl)amino)ethan-1-one]
11200	3280	COc1ccc(-c2[nH]c3ccc(C4CCNCC4O)cc3c2C(C)C)cc1OC (single isomer, unassigned) [Example 318, 4-(2-(3,4-dimethoxyphenyl)-3-isopropyl-1H-indol-5-yl)piperidin-3-ol 2,2,2-trifluoroacetate]
571	12	COc1ccc(-c2[nH]c3ccc(C4CCN(C(=O)CN5CCC(N6CCN(C)CC6)CC5)CC4)cc3c2C(C)C)cc1OC [Example 241, 1-(4-(2-(3,4-dimethoxyphenyl)-3-isopropyl-1H-indol-5-yl)piperidin-1-yl)-2-(4-(4-methylpiperazin-1-yl)piperidin-1-yl)ethan-1-one]
4980	25	COc1ccc(-c2[nH]c3ccc(C4CCN(C(=O)CN5CCN(CC(=O)NC(C)C)CC5)CC4)cc3c2C(C)C)cc1OC [Example 229, 2-(4-(2-(4-(2-(3,4-dimethoxyphenyl)-3-isopropyl-1H-indol-5-yl)piperidin-1-yl)-2-oxoethyl)piperazin-1-yl)-N-isopropylacetamide]
2870	8	COc1ccc(-c2[nH]c3ccc(C4CCN(CC(=O)N5CC[C@H](O)C5)CC4)cc3c2C(C)C)cc1OC [Example 278, (S)-2-(4-(2-(3,4-dimethoxyphenyl)-3-isopropyl-1H-indol-5-yl)piperidin-1-yl)-1-(3-hydroxypyrrolidin-1-yl)ethan-1-one]
502	13	COc1ccc(-c2[nH]c3ccc(C4CCN(C(=O)CN5CCC[C@H](C(=O)N6CCC(N(C)C)CC6)C5)CC4)cc3c2C(C)C)cc1OC [Example 289, (S)-1-(4-(2-(3,4-dimethoxyphenyl)-3-isopropyl-1H-indol-5-yl)piperidin-1-yl)-2-(3-(4-(dimethylamino)piperidine-1-carbonyl)piperidin-1-yl)ethan-1-one]
15100	46	COc1ccc(-c2[nH]c3ccc(C4CCN(C(=O)CNCC(N)=O)CC4)cc3c2C(C)C)cc1OC [Example 228, 2-((2-(4-(2-(3,4-dimethoxyphenyl)-3-isopropyl-1H-indol-5-yl)piperidin-1-yl)-2-oxoethyl)amino)acetamide]
417	26	COc1ccc(-c2[nH]c3ccc(C4CCN(C(=O)CN5CCCC(C(=O)NC6CCN(C(C)C)CC6)C5)CC4)cc3c2C(C)C)cc1OC (single isomer, unassigned) [Example 280, 1-(2-(4-(2-(3,4-dimethoxyphenyl)-3-isopropyl-1H-indol-5-yl)piperidin-1-yl)-2-oxoethyl)-N-(1-isopropylpiperidin-4-yl)piperidine-3-carboxamide]
4950	55	COc1ccc(-c2[nH]c3ccc(C4CCN(C(=O)CN5CCC[C@H](C(=O)NC(C)C)C5)CC4)cc3c2C(C)C)cc1OC [Example 285, (S)-1-(2-(4-(2-(3,4-dimethoxyphenyl)-3-isopropyl-1H-indol-5-yl)piperidin-1-yl)-2-oxoethyl)-N-isopropylpiperidine-3-carboxamide]
633	44	COc1ccc(-c2[nH]c3ccc(C4CCN(C(=O)CN5CCC[C@H](C(=O)N(C)C(C)C)C5)CC4)cc3c2C(C)C)cc1OC [Example 288, (S)-1-(2-(4-(2-(3,4-dimethoxyphenyl)-3-isopropyl-1H-indol-5-yl)piperidin-1-yl)-2-oxoethyl)-N-isopropyl-N-methylpiperidine-3-carboxamide]
6920	31	COc1ccc(-c2[nH]c3ccc(C4CCN(C(=O)CN5CCC[C@@H](C(=O)NCC(N)=O)C5)CC4)cc3c2C(C)C)cc1OC [Example 309, (R)—N-(2-amino-2-oxoethyl)-1-(2-(4-(2-(3,4-dimethoxyphenyl)-3-isopropyl-1H-indol-5-yl)piperidin-1-yl)-2-oxoethyl)piperidine-3-carboxamide]
83	72	COc1ccc(-c2[nH]c3ccc(C4CCN(C5C[C@H]6CC[C@@H](C5)N6C)CC4)cc3c2C)cc1OC (stereo partly drawn) [Example 21, 2-(3,4-dimethoxyphenyl)-3-methyl-5-(1-((1R,5S)-8-methyl-8-azabicyclo[3.2.1]octan-3-yl)piperidin-4-yl)-1H-indole]
1880	172	COc1ccc(-c2[nH]c3ccc(C4CCN(C(=O)CN[C@@H](CO)CC(C)C)CC4)cc3c2C(C)C)cc1OC [Example 234, (R)-1-(4-(2-(3,4-dimethoxyphenyl)-3-isopropyl-1H-indol-5-yl)piperidin-1-yl)-2-((1-hydroxy-4-methylpentan-2-yl)amino) ethan-1-one]
18000	495	COc1ccc(-c2[nH]c3ccc(C4CCN(CC(=O)N[C@H]5CC[C@H](C(C)(C)O)CC5)CC4)cc3c2C(C)C)cc1OC [Example 279, 2-(4-(2-(3,4-dimethoxyphenyl)-3-isopropyl-1H-indol-5-yl)piperidin-1-yl)-N-((1r,4r)-4-(2-hydroxypropan-2-yl)cyclohexyl)acetamide]
4130	40	CCN(CC)C(=O)C1CCCN(CC(=O)N2CCC(c3ccc4[nH]c(-c5ccc(OC)c(OC)c5)c(C(C)C)c4c3)CC2)C1 (stereo not shown) [Example 247, 1-(2-(4-(2-(3,4-dimethoxyphenyl)-3-isopropyl-1H-indol-5-yl)piperidin-1-yl)-2-oxoethyl)-N,N-diethylpiperidine-3-carboxamide]
